Data reported in paper PMC6278923 (Insect biochemistry and molecular biology, 2018).

Target: T1, RproOR1•RproOrco (Rhodnius prolixus, UniProt T1H977)
T1 sequence (T1H977 1-409): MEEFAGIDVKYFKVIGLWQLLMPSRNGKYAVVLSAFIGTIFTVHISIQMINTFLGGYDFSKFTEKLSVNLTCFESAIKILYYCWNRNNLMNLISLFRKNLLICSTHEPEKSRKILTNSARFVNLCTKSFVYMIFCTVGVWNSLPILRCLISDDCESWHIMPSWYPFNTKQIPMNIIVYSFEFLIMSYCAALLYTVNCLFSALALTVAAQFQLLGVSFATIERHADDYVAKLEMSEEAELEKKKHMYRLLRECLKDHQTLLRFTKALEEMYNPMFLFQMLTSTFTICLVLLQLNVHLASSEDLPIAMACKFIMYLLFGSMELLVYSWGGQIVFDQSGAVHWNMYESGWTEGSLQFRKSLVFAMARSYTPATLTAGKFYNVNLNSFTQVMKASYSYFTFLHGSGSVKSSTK
Test: two-electrode voltage clamp, Xenopus oocytes
Format: cell-based
Conditions: agonist; -70 mV; coexpressed with RproOrco

Compound | two-electrode voltage clamp, Xenopus oocytes
CC/C=C\CCOC(C)=O [(Z)-3-hexenyl acetate] | moderate responses to 3-methyl-1-butanol, methyl butyrate, (Z)-3-hexenyl acetate
CCCCC=O [pentanal] | moderate responses to 3-methyl-1-butanol, methyl butyrate, (Z)-3-hexenyl acetate, pentanal
